Experimental data as given in patent publication US20230201161A1, “Combination comprising HDAC inhibitor, LAG-3 inhibitor and a PD-1 inhibitor or PD-L1 inhibitor for cancer treatment” (4SC AG, priority 2018, published 2023).

Assays:
[1] = tested on: different types of blood cancer; details: cited from earlier work
[2] = tested on: Colon 38 (C38, a C57BL/6J mouse colon adenocarcinoma cell line) tumor; assay: C38 (Colon 38) subcutaneous tumor model, tumor volume; format: in vivo; details: female C57BL/6J mice, 20 per group; 4SC-202 20 mg/kg PO twice daily x24; antibodies 10 mg/kg IP (anti-PD1 TWx2, anti-LAG-3 Q3Dx4); data to day 27
Method: • 4SC-202 (tosylate salt). • Anti-PD1 antibody (clone: RMP1-14, catalog: BE0146, isotype: Rat IgG2a, Bioxcell), • Anti-LAG-3 antibody (clone: C9B7W, catalog: BE0174, isotype: Rat lgG1, Bioxcell),
• 4SC-202 was suspended in 2% aqueous methocel solution at 2 mg/ml (active compound). • Anti-PD-1 and anti-LAG3 antibody was diluted with PBS in order to reach final concentration of 1 mg/ml.
• 4SC-202 was administered at 20 mg/kg twice daily, based on 4SC-202 free base. • The anti-PD-1 and anti-LAG3 antibody was injected at 10 mg/kg per injection,
• 4SC-202 was administered by oral gavage (per os, PO) via a gavage tube. • The antibodies were injected intraperitoneally into the peritoneal cavity of mice. • In all cases, the administration volume was 10 mUkg adjusted to the most recent individual body weight of mice.
Colon 38 (C38, a C57BL/6J mouse colon adenocarcinoma cell line) tumor fragments.
The C38 fragments are stored frozen in DMSO/SVF/RPMI 1640 medium (10/10/80) in liquid nitrogen until use. In the study part 1, C38 frozen fragments were thawed at 37° C. for 5 min, rinsed twice in RPMI 1640 medium before subcutaneous (SC) implantation in mice.
Thirty-five (35) female C57BL/6J mice were subcutaneously implanted into the right flank with C38 tumor fragments. […]

[3] = 24 heavily pre-treated patients with different types of blood cancer

For `Cn1cc(-c2ccc(S(=O)(=O)n3ccc(/C=C/C(=O)Nc4ccccc4N)c3)cc2)cn1` [Compound 4SC-202, (E)-N-(2-aminophenyl)-3-(1-((4-(1-methyl-1H-pyrazol-4-yl)phenyl)sulfonyl)-1H-pyrrol-3-yl)acrylamide], the disease control [1, 3] is listed as 83 % of the patients, the long-term stabilization [1, 3] is listed as 50 % of patients and the tolerability [1, 3] is listed as “well tolerated with few and/or manageable adverse events”. The “complete remission, duration” value ([1]; one complete remission among 24 heavily pre-treated patients) was 28 months, the “partial responder, duration” value ([1]; one partial responder among 24 heavily pre-treated patients) was 8 months and the “tumor growth reduction / anti-tumoral efficacy (in words)” value [2] was “reduced tumor growth to a certain extent”.
